Reference: the NIST ThermoML archive (doi:10.1016/j.fluid.2013.08.029)
Numbers after ± are expanded uncertainties.

Assay: xn = mol fraction of the nth substance listed
Details: 101 kPa, Liquid; for speed of sound: Sing-around technique in a fixed-path interferometer; for mass density: Vibrating tube method

CCCCCn1cc[n+](C)c1.[Br-] [1-pentyl-3-methylimidazolium bromide] + OCCO
Details | mass density [kg/m3] | speed of sound [m/s]
288.15 K, x1 = 0.0528 | 1135.7 ± 0.19 | 1671.7 ± 2.2
288.15 K, x1 = 0.1031 | 1149.85 ± 0.21 | 1664.4 ± 2.2
288.15 K, x1 = 0.2102 | 1173.93 ± 0.28 | 1650.6 ± 2.3
288.15 K, x1 = 0.3163 | 1191.2 ± 0.38 | 1645.3 ± 2.4
288.15 K, x1 = 0.4186 | 1204.89 ± 0.48 | 1641.4 ± 2.4
288.15 K, x1 = 0.512 | 1215.13 ± 0.59 | 1637.7 ± 2.5
288.15 K, x1 = 0.6129 | 1224.18 ± 0.72 | 1636.5 ± 2.6
288.15 K, x1 = 0.6967 | 1232.13 ± 0.85 | 1638.7 ± 2.6
288.15 K, x1 = 0.8031 | 1241.92 ± 1 | 1645 ± 2.8
288.15 K, x1 = 0.9021 | 1252.46 ± 1.2 | 1657.9 ± 2.9
293.15 K, x1 = 0.0528 | 1132.19 ± 0.18 | 1659.9 ± 2.2
293.15 K, x1 = 0.1031 | 1146.32 ± 0.21 | 1653.9 ± 2.2
293.15 K, x1 = 0.2102 | 1170.4 ± 0.28 | 1642 ± 2.3
293.15 K, x1 = 0.3163 | 1187.71 ± 0.37 | 1634.5 ± 2.4
293.15 K, x1 = 0.4186 | 1201.44 ± 0.48 | 1628.9 ± 2.4
293.15 K, x1 = 0.512 | 1211.73 ± 0.59 | 1625.5 ± 2.5
293.15 K, x1 = 0.6129 | 1220.73 ± 0.72 | 1623.6 ± 2.6
293.15 K, x1 = 0.6967 | 1228.69 ± 0.84 | 1623.8 ± 2.6
293.15 K, x1 = 0.8031 | 1238.53 ± 1 | 1626.3 ± 2.7
293.15 K, x1 = 0.9021 | 1249.15 ± 1.2 | 1631.1 ± 2.9
298.15 K, x1 = 0.0528 | 1128.67 ± 0.18 | 1648.2 ± 2.2
298.15 K, x1 = 0.1031 | 1142.79 ± 0.21 | 1640.8 ± 2.2
298.15 K, x1 = 0.2102 | 1166.87 ± 0.28 | 1630.7 ± 2.3
298.15 K, x1 = 0.3163 | 1184.21 ± 0.37 | 1623 ± 2.4
298.15 K, x1 = 0.4186 | 1198 ± 0.47 | 1616.8 ± 2.4
298.15 K, x1 = 0.512 | 1208.33 ± 0.58 | 1613.8 ± 2.5
298.15 K, x1 = 0.6129 | 1217.41 ± 0.71 | 1612.4 ± 2.6
298.15 K, x1 = 0.6967 | 1225.25 ± 0.84 | 1611.9 ± 2.6
298.15 K, x1 = 0.8031 | 1235.13 ± 1 | 1613.2 ± 2.7
298.15 K, x1 = 0.9021 | 1245.76 ± 1.2 | 1616 ± 2.8
303.15 K, x1 = 0.0528 | 1125.14 ± 0.18 | 1636.4 ± 2.2
303.15 K, x1 = 0.1031 | 1139.26 ± 0.21 | 1629.8 ± 2.2
303.15 K, x1 = 0.2102 | 1163.34 ± 0.28 | 1619.1 ± 2.3
303.15 K, x1 = 0.3163 | 1180.73 ± 0.37 | 1611.6 ± 2.4
303.15 K, x1 = 0.4186 | 1194.57 ± 0.47 | 1606.2 ± 2.4
303.15 K, x1 = 0.512 | 1204.94 ± 0.58 | 1603 ± 2.5
303.15 K, x1 = 0.6129 | 1214.06 ± 0.71 | 1601.7 ± 2.6
303.15 K, x1 = 0.6967 | 1221.86 ± 0.83 | 1600.4 ± 2.6
303.15 K, x1 = 0.8031 | 1231.73 ± 1 | 1600.9 ± 2.7
303.15 K, x1 = 0.9021 | 1242.37 ± 1.2 | 1602.4 ± 2.8
308.15 K, x1 = 0.0528 | 1121.61 ± 0.18 | 1624.7 ± 2.2
308.15 K, x1 = 0.1031 | 1135.72 ± 0.21 | 1618.3 ± 2.2
308.15 K, x1 = 0.2102 | 1159.81 ± 0.28 | 1607.5 ± 2.3
308.15 K, x1 = 0.3163 | 1177.25 ± 0.36 | 1600.1 ± 2.4
308.15 K, x1 = 0.4186 | 1191.13 ± 0.47 | 1594.3 ± 2.4
308.15 K, x1 = 0.512 | 1201.54 ± 0.57 | 1591.3 ± 2.5
308.15 K, x1 = 0.6129 | 1210.72 ± 0.7 | 1590 ± 2.6
308.15 K, x1 = 0.6967 | 1218.56 ± 0.83 | 1589.1 ± 2.6
308.15 K, x1 = 0.8031 | 1228.31 ± 1 | 1589.3 ± 2.7
308.15 K, x1 = 0.9021 | 1238.93 ± 1.2 | 1589.8 ± 2.8
313.15 K, x1 = 0.0528 | 1118.07 ± 0.18 | 1613.1 ± 2.2
313.15 K, x1 = 0.1031 | 1132.18 ± 0.2 | 1606.5 ± 2.2
313.15 K, x1 = 0.2102 | 1156.29 ± 0.27 | 1596.1 ± 2.3
313.15 K, x1 = 0.3163 | 1173.78 ± 0.36 | 1588.8 ± 2.3
313.15 K, x1 = 0.4186 | 1187.7 ± 0.46 | 1583.2 ± 2.4
313.15 K, x1 = 0.512 | 1198.15 ± 0.57 | 1580.3 ± 2.5
313.15 K, x1 = 0.6129 | 1207.38 ± 0.7 | 1579.1 ± 2.6
313.15 K, x1 = 0.6967 | 1215.25 ± 0.82 | 1578.2 ± 2.6
313.15 K, x1 = 0.8031 | 1225 ± 0.99 | 1578 ± 2.7
313.15 K, x1 = 0.9021 | 1235.48 ± 1.2 | 1578 ± 2.8
318.15 K, x1 = 0.0528 | 1114.51 ± 0.18 | 1601.4 ± 2.2
318.15 K, x1 = 0.1031 | 1128.62 ± 0.2 | 1595 ± 2.2
318.15 K, x1 = 0.2102 | 1152.75 ± 0.27 | 1584.5 ± 2.3
318.15 K, x1 = 0.3163 | 1170.3 ± 0.36 | 1577.5 ± 2.3
318.15 K, x1 = 0.4186 | 1184.27 ± 0.46 | 1572.2 ± 2.4
318.15 K, x1 = 0.512 | 1194.76 ± 0.57 | 1569.5 ± 2.5
318.15 K, x1 = 0.6129 | 1204.05 ± 0.69 | 1568.3 ± 2.6
318.15 K, x1 = 0.6967 | 1211.94 ± 0.81 | 1567.4 ± 2.6
318.15 K, x1 = 0.8031 | 1221.73 ± 0.99 | 1567.1 ± 2.7
318.15 K, x1 = 0.9021 | 1232.06 ± 1.2 | 1566.8 ± 2.8
